Laboratory results taken from PubChem BioAssay (NCI).
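These data come from cells grown in 96-well plates and exposed to compound for 48 hours at five concentrations. GI50 = concentration required for 50% inhibition of growth. The concentration for full growth arrest is given as TGI.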

Assays:
Assay in all cases: growth of human tumour cells (NCI), 48 h
[1] = test system: HOP-62 NSCLC
[2] = test system: DU-145 prostate
[3] = test system: NCI-H522 lung
[4] = test system: UACC-257 melanoma
[5] = test system: EKVX NSCLC
[6] = test system: CAKI-1 renal
[7] = test system: SNB-19 CNS
[8] = test system: SN12C renal
[9] = test system: NCI-H226 lung
[10] = test system: U251 CNS
[11] = test system: MDA-MB-435
[12] = test system: SF-539 CNS
[13] = test system: HCT-116 colon
[14] = test system: HS 578T breast
[15] = test system: SK-OV-3 ovarian
[16] = test system: KM12 colon
[17] = test system: OVCAR-8 ovarian
[18] = test system: A498 renal
[19] = test system: MDA-MB-231 breast
[20] = test system: 786-0 renal
[21] = test system: MCF7 breast
[22] = test system: ACHN renal
[23] = test system: SK-MEL-2 melanoma
[24] = test system: NCI-H460 lung
[25] = test system: IGROV1 ovarian
[26] = test system: RPMI-8226 leukemia
[27] = test system: T-47D breast
[28] = test system: CCRF-CEM leukemia
[29] = test system: SK-MEL-28 melanoma

`CCCCOc1ccc(NC(=O)c2sc3nc(C)ccc3c2N)cc1` showed a GI50 [1] of 10.6 µM, a TGI [1] of 28 µM and a GI50 [2] of 5.29 µM. It also gave a TGI [2] of 36.1 µM, a GI50 [3] of 2.88 µM and a TGI [3] of 15.2 µM. For the same molecule, the GI50 [4] was 10 µM, the TGI [4] was 44.6 µM and the GI50 [5] was 2.17 µM. It also gave a TGI [5] of 14.7 µM, a GI50 [6] of 3.47 µM and a TGI [6] of 16.7 µM. For the same molecule, the GI50 [7] was 3.47 µM, the TGI [7] was 13.8 µM and the GI50 [8] was 4.09 µM. For the same molecule, the TGI [8] was 22.8 µM, the GI50 [9] was 2.89 µM and the TGI [9] was 18.7 µM. For the same molecule, the GI50 [10] was 3.41 µM, the TGI [10] was 11.1 µM and the GI50 [11] was 4.96 µM. The TGI [11] was 22.1 µM, the GI50 [12] was 1.89 µM and the TGI [12] was 3.77 µM. For the same molecule, the GI50 [13] was 2.28 µM, the TGI [13] was 6.04 µM and the GI50 [14] was 5.97 µM. It also gave a TGI [14] of 38.7 µM, a GI50 [15] of 6.36 µM and a TGI [15] of 20 µM. The GI50 [16] was 3.96 µM, the TGI [16] was 18.5 µM and the GI50 [17] was 2.61 µM. The TGI [17] was 6.67 µM, the GI50 [18] was 14.9 µM and the TGI [18] was 28.5 µM. The GI50 [19] was 2.93 µM, the TGI [19] was 10.6 µM and the GI50 [20] was 1.86 µM. For the same molecule, the TGI [20] was 4.21 µM, the GI50 [21] was 3.07 µM and the TGI [21] was 16.4 µM. The GI50 [22] was 2.72 µM, the TGI [22] was 12.7 µM and the GI50 [23] was 8.95 µM. The TGI [23] was 31.4 µM, the GI50 [24] was 3.23 µM and the TGI [24] was 10.9 µM. For the same molecule, the GI50 [25] was 4.1 µM, the TGI [25] was 17.4 µM and the GI50 [26] was 8.14 µM. The TGI [26] was greater than 100 µM, the GI50 [27] was 2.82 µM and the TGI [27] was 25.7 µM. For the same molecule, the GI50 [28] was 54 µM, the TGI [28] was greater than 100 µM and the GI50 [29] was 12.2 µM. It also gave a TGI [29] of 29.8 µM.
